According to patent US20110319392A1, “Thiazole Sulfonamide And Oxazole Sulfonamide Kinase Inhibitors” (priority 2009, published 2011):

How the values were obtained:
ErbB2 = target: T1, ErbB2 (Homo sapiens, UniProt P04626); experiment: ErbB-2 substrate phosphorylation assay (HTRF); assay type: biochemical
T1 construct: made in house; host or cells: baculovirus expression system
Procedure, shortened: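 Baculovirus-expressed EGFR (0.8 nM) or ErbB2 (10 nM) in enzyme mix, preincubated 1 h at 20 °C with compound (0.00027–47.6 μM final), then 90 min at 20 °C with substrate mix of 20 μM ATP, 0.8 uM biotinylated Peptide C, MnCl2, MOPS pH 7.5. Phosphotyrosine by HTRF; pIC50 reported.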

SK-MEL-3 tumor cells = experiment: Cell growth inhibition assay (CellTiter-Glo), SK-MEL-3; assay type: cell-based, Human; conditions: Homo sapiens, SK-MEL3
Procedure, shortened: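 Cells plated at 500 cells/well in their growth media, dosed next day with nine-step 1:3 compound dilutions (final DMSO 0.2%), then incubated 3 days at 37° C, 5% CO2. Total ATP read by CellTiter-Glo luminescence as a surrogate for cell number; IC50 interpolated from 4-parameter fit versus DMSO controls.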

SK-MEL-28 tumor cells = experiment: Cell growth inhibition assay (CellTiter-Glo), SK-MEL-28; assay type: cell-based, Human; conditions: Homo sapiens, SK-MEL-28, 72 h; 3 days incubation
Procedure, shortened: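 Readout was CellTiter-Glo luminescence (total ATP, surrogate for cell number) after 3-day exposure at 37° C, 5% CO2 to 1:3 serial compound dilutions in 0.2% final DMSO. Seeding was 500 cells/well; IC50 derived by 4-parameter fit relative to vehicle-treated wells.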

T1 sequence (P04626 23-1255): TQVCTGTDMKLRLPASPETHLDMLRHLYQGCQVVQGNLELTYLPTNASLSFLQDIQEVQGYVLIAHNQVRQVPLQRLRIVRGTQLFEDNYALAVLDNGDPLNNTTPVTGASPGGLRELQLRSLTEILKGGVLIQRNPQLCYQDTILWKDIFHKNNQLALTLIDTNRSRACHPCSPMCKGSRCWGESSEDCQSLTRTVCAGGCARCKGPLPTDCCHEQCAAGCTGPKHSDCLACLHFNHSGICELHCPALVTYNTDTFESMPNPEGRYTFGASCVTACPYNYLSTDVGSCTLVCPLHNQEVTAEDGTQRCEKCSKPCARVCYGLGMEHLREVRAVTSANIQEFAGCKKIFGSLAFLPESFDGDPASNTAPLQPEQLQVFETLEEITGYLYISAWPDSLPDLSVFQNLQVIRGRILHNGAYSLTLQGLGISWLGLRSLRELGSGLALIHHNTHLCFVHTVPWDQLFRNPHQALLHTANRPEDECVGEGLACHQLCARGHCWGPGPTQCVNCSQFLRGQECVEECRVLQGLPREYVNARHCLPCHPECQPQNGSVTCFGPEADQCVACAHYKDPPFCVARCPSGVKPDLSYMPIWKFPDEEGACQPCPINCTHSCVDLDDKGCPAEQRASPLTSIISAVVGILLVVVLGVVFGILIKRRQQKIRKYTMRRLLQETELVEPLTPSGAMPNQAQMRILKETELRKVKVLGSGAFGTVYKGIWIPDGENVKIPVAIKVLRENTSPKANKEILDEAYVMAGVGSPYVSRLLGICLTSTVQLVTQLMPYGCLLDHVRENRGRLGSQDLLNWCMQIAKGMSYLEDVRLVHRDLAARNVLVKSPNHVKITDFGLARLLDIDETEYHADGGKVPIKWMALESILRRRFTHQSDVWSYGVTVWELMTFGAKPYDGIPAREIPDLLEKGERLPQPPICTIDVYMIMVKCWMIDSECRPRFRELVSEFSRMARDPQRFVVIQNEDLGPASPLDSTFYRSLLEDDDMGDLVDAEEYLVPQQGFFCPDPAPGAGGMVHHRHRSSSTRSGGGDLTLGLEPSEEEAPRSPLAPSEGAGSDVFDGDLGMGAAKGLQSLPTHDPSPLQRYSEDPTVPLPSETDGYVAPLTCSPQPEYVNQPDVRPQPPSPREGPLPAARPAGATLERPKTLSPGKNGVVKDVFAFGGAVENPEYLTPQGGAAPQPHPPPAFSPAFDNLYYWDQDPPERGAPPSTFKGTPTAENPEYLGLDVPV

Compound | IC50 (ErbB2) | IC50 (SK-MEL-3 tumor cells) | IC50 (SK-MEL-28 tumor cells)
CC(=O)N1CCN(c2ccc(Nc3nccc(-c4sc(C(C)C)nc4-c4cccc(NS(=O)(=O)c5cc(F)ccc5F)c4)n3)cn2)CC1 [Example 96] | > 1000 nM | < 100 nM | < 100 nM
CC(C)c1nc(-c2cccc(NS(=O)(=O)c3c(F)cccc3F)c2)c(-c2ccnc(Nc3ccc(N4CCN(CCO)CC4)nc3)n2)s1 [Example 80] | > 1000 nM | < 100 nM | < 100 nM
CC(C)c1nc(-c2cc(F)cc(NS(=O)(=O)c3c(F)cccc3F)c2)c(-c2ccnc(Nc3ccc(N4CCOCC4)nc3)n2)s1 [Example 84] | > 1000 nM | < 100 nM | < 100 nM
CC(C)c1nc(-c2cccc(NS(=O)(=O)c3ccccc3)c2)c(-c2ccnc(Nc3ccc(N4CCN(CCS(C)(=O)=O)CC4)c(F)c3F)n2)s1 [Example 74] | > 1000 nM | 100 to 1000 nM | 100 to 1000 nM
CC(C)c1nc(-c2cccc(NS(=O)(=O)c3c(F)cccc3F)c2)c(-c2ccnc(Nc3cc(F)c(N4CCN(CCS(C)(=O)=O)CC4)cc3F)n2)s1 [Example 87] | 100 to 1000 nM | < 100 nM | < 100 nM
CC(C)c1nc(-c2cccc(NS(=O)(=O)c3ccccc3)c2)c(-c2ccnc(Nc3ccc(CC4CCN(CCS(C)(=O)=O)CC4)c(F)c3)n2)s1 [Example 72] | > 1000 nM | < 100 nM | 100 to 1000 nM
CCc1nc(-c2cccc(NS(=O)(=O)c3ccccc3)c2)c(-c2ccnc(Nc3ccc(N4CCOCC4)c(F)c3)n2)s1 [Example 4] | > 1000 nM | 100 to 1000 nM | 100 to 1000 nM
CC(C)c1nc(-c2cccc(NS(=O)(=O)c3c(F)cccc3F)c2)c(-c2ccnc(Nc3ccc(N4CCCNCC4)nc3)n2)s1 [Example 82] | 100 to 1000 nM | < 100 nM | < 100 nM
C=C(C)c1nc(-c2cccc(NS(=O)(=O)c3c(F)cccc3F)c2)c(-c2ccnc(Nc3ccc(N4CCN(CCF)CC4)c(F)c3)n2)s1 [Example 93] | 100 to 1000 nM | 100 to 1000 nM | 100 to 1000 nM
CCc1nc(-c2cccc(NS(=O)(=O)c3ccccc3)c2)c(-c2ccnc(Nc3ccc(OC)c(N4CCN(CCS(C)(=O)=O)CC4)c3)n2)s1 [Example 5, N-[3-(2-Ethyl-5-{2-[(4-(methyloxy)-3-{4-[2-(methylsulfonyl)ethyl]-1-piperazinyl}phenyl)amino]-4-pyrimidinyl}-1,3-thiazol-4-yl)phenyl]benzenesulfonamide] | 100 to 1000 nM | < 100 nM | < 100 nM
CCc1nc(-c2cccc(NS(=O)(=O)c3ccccc3)c2)c(-c2ccnc(Nc3ccc(N4CCN(C(C)=O)CC4)nc3)n2)s1 [Example 3, N-{3-[5-(2-{[6-(4-Acetyl-1-piperazinyl)-3-pyridinyl]amino}-4-pyrimidinyl)-2-ethyl-1,3-thiazol-4-yl]phenyl}benzenesulfonamide] | > 1000 nM | < 100 nM | < 100 nM
CC(C)c1nc(-c2cc(F)cc(NS(=O)(=O)c3ccc(F)cc3)c2)c(-c2ccnc(Nc3ccc(N4CCOCC4)c(F)c3)n2)s1 [Example 83] | > 1000 nM | 100 to 1000 nM | 100 to 1000 nM
CC(C)c1nc(-c2cccc(NS(=O)(=O)c3ccccc3)c2)c(-c2ccnc(Nc3ccc(F)c(N4CCN(CCS(C)(=O)=O)CC4)c3)n2)s1 [Example 73] | 100 to 1000 nM | < 100 nM | < 100 nM
CC(C)c1nc(-c2cccc(NS(=O)(=O)c3c(F)cccc3F)c2)c(-c2ccnc(Nc3ccc(N4CC[C@@H](O)C4)nc3)n2)s1 [Example 89] | 100 to 1000 nM | < 100 nM | < 100 nM
CC(C)c1nc(-c2cccc(NS(=O)(=O)c3c(F)cccc3F)c2)c(-c2ccnc(Nc3ccc(N4CCN(C(C)C)CC4)cc3O)n2)s1 [Example 78] | 100 to 1000 nM | < 100 nM | < 100 nM
CC(C)c1nc(-c2cccc(NS(=O)(=O)c3ccccc3)c2)c(-c2ccnc(Nc3ccc(N4CCOCC4)cn3)n2)s1 [Example 92] | > 1000 nM | 100 to 1000 nM | 100 to 1000 nM

Next, values leading:

IC50 (ErbB2) | IC50 (SK-MEL-3 tumor cells) | IC50 (SK-MEL-28 tumor cells) | Compound
100 to 1000 nM | 100 to 1000 nM | 100 to 1000 nM | COc1cc(N2CCN(CCF)CC2)ccc1Nc1nccc(-c2sc(C(C)C)nc2-c2cccc(NS(=O)(=O)c3c(F)cccc3F)c2)n1 [Example 79]
100 to 1000 nM | < 100 nM | < 100 nM | CC(C)c1nc(-c2cccc(NS(=O)(=O)c3c(F)cccc3F)c2)c(-c2ccnc(Nc3ccc(N4CCCN(CCS(C)(=O)=O)CC4)nc3)n2)s1 [Example 88]
100 to 1000 nM | < 100 nM | < 100 nM | CC(C)c1nc(-c2cc(F)cc(NS(=O)(=O)c3c(F)cccc3F)c2)c(-c2ccnc(Nc3ccc(N4CCOCC4)c(F)c3)n2)s1 [Example 85]
100 to 1000 nM | 100 to 1000 nM | < 100 nM | CC(C)c1nc(-c2ccc(F)c(NS(=O)(=O)c3c(F)cccc3F)c2)c(-c2ccnc(Nc3ccc(N4CCN(CCS(C)(=O)=O)CC4)c(F)c3)n2)s1 [Example 95]
100 to 1000 nM | < 100 nM | < 100 nM | CC(C)c1nc(-c2cccc(NS(=O)(=O)c3c(F)cccc3F)c2)c(-c2ccnc(Nc3cccc(N4CCN(C)CC4)c3)n2)s1 [Example 81]
< 100 nM | < 100 nM | < 100 nM | CC(=O)N1CCc2cc(Nc3nccc(-c4sc(C(C)C)nc4-c4cccc(NS(=O)(=O)c5ccccc5)c4)n3)ccc21 [Example 71]
< 100 nM | 100 to 1000 nM | < 100 nM | Cc1cc(N2CCC(N3CCCCC3)CC2)ccc1Nc1nccc(-c2sc(C(C)C)nc2-c2cccc(NS(=O)(=O)c3c(F)cccc3F)c2)n1 [Example 91]
